Legend:
B16 [1] = assay: Inhibition of melanogenesis in mouse B16 cells at 10 uM; assay type: functional
B16 [2] = assay: Inhibition of melanogenesis in mouse B16 cells; assay type: functional, cell-based

| Structure (SMILES) | inhibition at 10 µM (B16 [1]) [%] | IC50 (B16 [2]) [µM] |
| --- | --- | --- |
| Cc1ccc(/C=N/NC(N)=S)cc1 | 64 | – |
| CCc1ccc(/C=N/NC(N)=S)cc1 | > 100 | – |
| NC(=S)N/N=C/C1CCCCC1 | 81 | 3.4 |
| Cc1cccc(/C=N/NC(N)=S)c1 | > 100 | 2.8 |
| NC(=S)N/N=C/c1cccc(Cl)c1 | > 100 | 2.4 |
| Cc1ccccc1/C=N/NC(N)=S | > 100 | 3.4 |
| CCc1ccccc1/C=N/NC(N)=S | > 100 | 2.7 |
| NC(=S)N/N=C\c1cccc2ccccc12 | > 100 | 1.1 |
| NC(=S)N/N=C/c1ccccc1Cl | > 100 | 1.4 |
| COc1cccc(/C=N/NC(N)=S)c1 | 40 | 15.4 |
| NC(=S)N/N=C/c1ccccc1O | 24 | 21 |
| N/C(S)=N/N=C/c1ccccn1 | 15 | > 30 |
| NC(=S)N/N=C/c1ccc(Cl)cc1 | 92 | 4.2 |
| COc1ccc(/C=N/NC(N)=S)cc1 | 42 | 15.1 |
| NC(=S)N/N=C/c1ccccc1 [PHENYLTHIOSEMICARBAZONE] | < 10 | > 10 |
